Measurements from US20250064779A1, “COMPOSITIONS AND METHODS FOR THE TREATMENT OF DEPRESSION” (Janssen Pharmaceuticals, Inc., priority 2022, published 2025).
“And” between values parts separate entries of the source, which are not always exact repeats. Equal entries are not always repeated.

Experiments:
Assay type in all cases: in vivo, human
[1] = Weight change, Example 1; conditions: n = 85; for Mean weight, Withdrawal Baseline, mean (SE): after 6 weeks in the double-blind treatment phase
Text: At the lead-in baseline timepoint, the mean weight for subjects in the placebo group was 76.17 kg compared to 78.66 in the aticaprant group. After 6 weeks in the double-blind treatment phase, the mean weight in the placebo group was 75.75 kg compared to 78.57 kg in the aticaprant group. […] This is unexpected because other adjunctive treatments for MDD result in a mean weight increase. See, Thase M, et al. J Clin Psych. 2015: 76(9), 1224-1231; Thase, J Clin Psych. 2015, 76(9):1232-1240; El Khalili, Int J Neuropsychopharmacol. 2010, 13, 917-932; Marcus, J. Clin. Psychopharmacol. […] Nashville, Tenn, ACNP, 2008; Earley, American College of Neuropsychopharmacology, 2007, Annual Meeting Abstracts (Boca Raton, Fla, Dec. 9-13, 2007). Nashville, TN, ACNP, 2007). See, Table 29.

[2] = system: subjects with TRD; assay: MADRS, intranasal esketamine plus oral antidepressant, open-label long-term study (Example 5)
[3] = system: subjects with TRD; assay: PHQ-9 total score, esketamine long-term study (Example 5)
Text: This is an open-label, multicenter, long-term study to evaluate the efficacy of intranasal esketamine plus a newly initiated oral antidepressant in subjects with TRD ([…] 3002/NCT02418585).
Each subject participated in up to 4 phases: up to 4-week screening phase (direct-entry subjects only), a 4-week open-label induction (IND) phase (direct-entry subjects and transferred-entry non responder subjects), a 48-week open-label optimization/maintenance (OP/MA) phase (all responder subjects from the open label IND phase of the current study, and transferred-entry responder subjects), and a 4-week follow-up phase. The maximum duration of the subject's participation in […] 3004 study was 60 weeks for direct-entry subjects; 56 weeks for transferred-entry non-responder subjects, and 52 weeks for transferred-entry responder subjects. The sample size of 750 was estimated to have at least 300 subjects received treatment with intranasal esketamine for 6 months and at least 100 subjects for 12 months. In addition, transfer-entry subjects were enrolled from 3005 study to get 100 elderly subjects dosed with esketamine. See, FIG. 30 for the trial design.
The efficacy analyses are based on the full (IND) analysis set and the full (OP/MA) analysis set. […] A total score (0 to 60) is calculated by summing the scores of all 10 items. […]

[4] = system: subjects with TRD; assay: SDS remission (functional recovery), esketamine long-term study (Example 5); conditions: observed case
Text: Functional recovery measured by SDS followed with some lag time after mood improvement. […] See, FIG. 32.

[5] = system: adjunctive MDD, including treatment-resistant MDD (TRD) and MDD with suicidal ideation (SUI); assay: Biomarker signature (3MM, 2MM, CRP) analysis of MADRS treatment effect across clinical trials (Example 6)
Description: Samples of venous blood were obtained from patients and healthy control subjects from subject described in Example 5 and from the other clinical trials referenced herein. Serum or plasma was prepared from the samples of venous blood. Measurements of human CRP and IL-6-R were performed in serum using an MSD Sector 6000 with the kits #K151STD and K151ALC (MesoScale Discovery, Rockville, MD). Human TNFα was quantified in serum using a Simoa HD-1 analyzer with kit #143 (Quanterix, Lexington, MA). All measures were performed according to kit manufacturer's recommendations.
As used in the following biomarker assay analysis, treatment (TRT) refers to treatment with intranasal esketamine plus optionally an oral antidepressant and placebo (PBO) refers to treatment with a placebo plus optionally an oral antidepressant.
The following biomarker signatures were employed: • 3MM: Inflammatory biomarker signature with positive status defined by CRP >3 mg/L and (TNFα>4 pg/mL or sIL6R>25 ng/mL). • 2MM: Inflammatory biomarker signature with positive status defined by CRP >3 mg/L and sIL6R>25 ng/mL. • CRP: Inflammatory biomarker signature with positive status defined by CRP >3 mg/L/
The 3MM signature was tested in clinical trials for adjunctive MDD, including treatment-resistant MDD (TRD) and MDD with suicidal ideation (SUI). […] Significant was driven by Esketamine (ESK) TRD trials.

[6] = endpoint of OP/MA phase, responders proceeding to OP/MA
[7] = across the esketamine TRD trials, end of double blind treatment

## Cc1cc(C)cc(C2CCCN2Cc2ccc(Oc3ccc(C(N)=O)cc3F)cc2)c1 (stereo not drawn) [aticaprant, 3-fluoro-4-4-2-(3,5-dimethylphenyl)pyrrolidin-1-yl-methylphenoxybenzamide]
[1]
  Mean weight, Lead-in Baseline, mean (SE): 78.66 kg
  Mean weight, Screening, mean (SE): 78.42 (1.65) kg
  Weight: Absolute Change (Withdrawal − Lead-in): -0.09 kg
  Mean weight, Withdrawal Baseline, mean (SE): 78.57 kg
[1]; Withdrawal vs Lead-in
  Weight: Relative % Change: −0.11%
[1]; listed as Aticaprant
  Mean weight, Withdrawal Baseline, mean (SE): 78.57 (1.71) kg
  Mean weight, Lead-in Baseline, mean (SE): 78.66 (1.65) kg

## CN[C@]1(c2ccccc2Cl)CCCCC1=O [esketamine, (S)-2-(2-chlorophenyl)-2-(methylamino)cyclohexanone]
[2]; 4-week open-label induction phase, intranasal 28/56/84 mg twice weekly
  MADRS total score: mean change (SD) from Baseline (IND) to End Point (IND): −16.4 (8.76)
[2]; 48-week optimization/maintenance phase
  MADRS total score: mean change (SD) from Baseline (OP/MA) to End Point (OP/MA): 0.3 (8.12)
[2]; End Point, IND phase
  remission rate (MADRS total score ≤12): 47.2%
  response rate (≥50% improvement from Baseline (IND) in MADRS total score): 78.4%
[2]; [6]
  remitters (MADRS total score ≤12): 58.2%
  responders (≥50% improvement in MADRS total score): 76.5%
[3]; induction phase
  PHQ-9 total score: mean change (SD) from Baseline (IND) to End Point (IND): −8.9 (6.67)
[3]; optimization/maintenance phase
  PHQ-9 total score: mean change (SD) from Baseline (OP/MA) to End Point (OP/MA): −0.2 (5.65)
[4]; OP/MA phase week 4
  remission rate measured by SDS: 25.2%
[4]; OP/MA phase week 48
  remission rate measured by SDS: 51.1%
[4]; endpoint of the IND phase
  remission rate measured by SDS: 21.1%
[5]; TRD2003, Japanese patients
  treatment effect, change in MADRS, biomarker signature negative patients: 2.83 points
[5]; TRD2003, Japanese patients, small n
  treatment effect, change in MADRS, biomarker signature positive patients: 11.69 points
[5]; across the esketamine TRD trials
  Signature advantage (difference between subtypes), 3MM: 5.8 point
[5]; [7]
  Treatment effect over placebo in 3MM biomarker signature negative subjects (TE SigNeg): 2 MADRS points and 2.0 MADRS points
  Treatment effect over placebo in 3MM biomarker signature positive subjects (TE SigPos): 7.8 MADRS points
[5]; esketamine trials with suicidal ideation (SUI)
  3MM status at baseline as predictor of treatment effect: did not predict treatment effect
